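Test compounds were applied to cells in 96-well plates for 48 hours at 5 doses. TGI is the concentration that stops growth completely.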

Test systems include 786-0 renal; A498 renal; A549 NSCLC; BT-549 breast; CAKI-1 renal; HCT-15 colon; HOP-92 NSCLC; HT29 colon; K-562 leukemia; LOX IMVI melanoma; M14 melanoma; MCF7 breast; MDA-MB-435; RPMI-8226 leukemia; RXF 393 renal; SK-MEL-28 melanoma; SNB-75 CNS; U251 CNS; UO-31 renal; IGROV1 ovarian.
Holding throughout (experiment): growth of human tumour cells (NCI), 48 h

For `COc1ccc(C[C@@H](CO)NC2=C(C#N)CCC2)cc1`, the TGI in the assay on 786-0 renal is greater than 100 µM; with A498 renal, 97.9 µM; in the assay with A549 NSCLC, greater than 100 µM; in the assay on BT-549 breast, greater than 100 µM; in the assay on CAKI-1 renal it was greater than 100 µM; with HCT-15 colon it was greater than 100 µM. The TGI with HOP-92 NSCLC, in the assay with HT29 colon, in the assay on K-562 leukemia, in the assay with LOX IMVI melanoma, with M14 melanoma and in the assay with MCF7 breast was greater than 100 µM each time. Also, the TGI was greater than 100 µM in the assay with MDA-MB-435; 59.6 µM with RPMI-8226 leukemia; greater than 100 µM with RXF 393 renal; greater than 100 µM in the assay on SK-MEL-28 melanoma; 95.1 µM with SNB-75 CNS; greater than 100 µM in the assay with U251 CNS. In the assay on UO-31 renal, this compound displayed a TGI greater than 100 µM.
As for `CC(C)NC(NC(C)C)=C(S(=O)(=O)C(F)(F)C(F)(F)C(F)(F)C(F)(F)F)S(=O)(=O)C(F)(F)C(F)(F)C(F)(F)C(F)(F)F`, the TGI in the assay with 786-0 renal, in the assay with A498 renal, in the assay with A549 NSCLC, with BT-549 breast, in the assay with CAKI-1 renal and in the assay on HCT-15 colon was greater than 100 µM throughout. The TGI with HOP-92 NSCLC, in the assay with HT29 colon, in the assay on IGROV1 ovarian, with K-562 leukemia, in the assay with LOX IMVI melanoma and in the assay with M14 melanoma was greater than 100 µM throughout. In addition, the TGI in the assay with MCF7 breast, in the assay on MDA-MB-435, in the assay with RPMI-8226 leukemia, in the assay with SK-MEL-28 melanoma, with SNB-75 CNS and in the assay with U251 CNS was greater than 100 µM throughout. This compound also showed a TGI in the assay with UO-31 renal greater than 100 µM.
Take `CC(C)(C)/C(=N\Nc1nc2ccccc2[nH]1)c1ccccn1`: the TGI in the assay with 786-0 renal, in the assay on A498 renal, with A549 NSCLC, in the assay on BT-549 breast, in the assay on CAKI-1 renal and in the assay on HCT-15 colon was greater than 100 µM in each case. Further, the TGI with HOP-92 NSCLC, in the assay on HT29 colon, with IGROV1 ovarian, in the assay on K-562 leukemia, in the assay on LOX IMVI melanoma and in the assay on M14 melanoma was greater than 100 µM throughout. The TGI with MCF7 breast is 67.2 µM; in the assay on MDA-MB-435 it was greater than 100 µM; in the assay with RPMI-8226 leukemia, 35.4 µM; in the assay on RXF 393 renal it was greater than 100 µM; in the assay on SK-MEL-28 melanoma, greater than 100 µM; in the assay with U251 CNS, greater than 100 µM. The TGI in the assay on UO-31 renal is greater than 100 µM.
Consider `OC1(c2ccc(Cl)cc2)C(N2CCCC2)c2ccccc2C2=NCCN21` (stereo not drawn), for which the TGI with 786-0 renal is greater than 100 µM; with A498 renal, 60.9 µM; in the assay on A549 NSCLC, greater than 100 µM; in the assay on BT-549 breast, 65.2 µM; in the assay on CAKI-1 renal it was 94.6 µM; in the assay with HCT-15 colon, greater than 100 µM. Moreover, the TGI with HOP-92 NSCLC came out at 62.9 µM; with HT29 colon, 32.4 µM; in the assay with IGROV1 ovarian, 52.7 µM; in the assay on K-562 leukemia, 47.5 µM; in the assay on LOX IMVI melanoma it was 36.7 µM; in the assay with M14 melanoma, 31.7 µM. For the same compound, the TGI with MCF7 breast is 94.8 µM; in the assay with MDA-MB-435 it was 86.7 µM; with RPMI-8226 leukemia, 32.1 µM; in the assay with RXF 393 renal it was 91.9 µM; with SK-MEL-28 melanoma, 31.9 µM; in the assay with U251 CNS it was greater than 100 µM. For the same compound, the TGI with UO-31 renal is greater than 100 µM.
Regarding `COC(=O)c1cc(C)ccc1C1CN=NC12Cc1ccc(C)cc1C2=O` (stereo not drawn), the TGI is greater than 100 µM with 786-0 renal; 91.3 µM with A498 renal; greater than 100 µM in the assay with A549 NSCLC; greater than 100 µM in the assay on BT-549 breast; greater than 100 µM in the assay on CAKI-1 renal; greater than 100 µM with HCT-15 colon. For the same compound, the TGI in the assay on HOP-92 NSCLC is 66.5 µM; with HT29 colon, greater than 100 µM; with IGROV1 ovarian, greater than 100 µM; in the assay with K-562 leukemia, greater than 100 µM; with LOX IMVI melanoma, greater than 100 µM; with M14 melanoma it was greater than 100 µM. Also, the TGI with MCF7 breast was 85.8 µM; in the assay on MDA-MB-435, greater than 100 µM; in the assay with RXF 393 renal it was greater than 100 µM; in the assay on SK-MEL-28 melanoma, greater than 100 µM; with SNB-75 CNS, greater than 100 µM; in the assay on U251 CNS, greater than 100 µM. Further, the TGI with UO-31 renal is greater than 100 µM.
`COc1ccc(C(=O)c2sc(N(C)C)nc2-c2ccccc2)cc1`: the TGI was greater than 100 µM in the assay on 786-0 renal; 93.1 µM in the assay on A498 renal; greater than 100 µM in the assay on A549 NSCLC; 75.6 µM in the assay with BT-549 breast; greater than 100 µM in the assay on HCT-15 colon; greater than 100 µM with HOP-92 NSCLC. The TGI with HT29 colon, in the assay with IGROV1 ovarian, in the assay on K-562 leukemia, with LOX IMVI melanoma, with M14 melanoma and with MCF7 breast was greater than 100 µM throughout. Further, the TGI is 52 µM in the assay on MDA-MB-435; greater than 100 µM in the assay with RPMI-8226 leukemia; greater than 100 µM in the assay with RXF 393 renal; greater than 100 µM with SK-MEL-28 melanoma; 80.1 µM in the assay on SNB-75 CNS; greater than 100 µM in the assay on U251 CNS. Further, the TGI with UO-31 renal was greater than 100 µM.
Regarding `CCCC/C=C/C/C=C/CCCCCCCCC(=O)OCC1CCCN2CCCCC12` (stereo not drawn), the TGI with 786-0 renal, with A498 renal, in the assay on A549 NSCLC, with BT-549 breast, in the assay with CAKI-1 renal and in the assay with HCT-15 colon was greater than 100 µM each time. Moreover, the TGI in the assay on HOP-92 NSCLC, in the assay on HT29 colon, with K-562 leukemia, with LOX IMVI melanoma, in the assay with M14 melanoma and with MCF7 breast was greater than 100 µM throughout. For the same compound, the TGI with MDA-MB-435, with RPMI-8226 leukemia, with RXF 393 renal, in the assay on SK-MEL-28 melanoma, with SNB-75 CNS and in the assay on U251 CNS was greater than 100 µM each time. The compound also had a TGI in the assay on UO-31 renal greater than 100 µM.

The values are drawn from PubChem BioAssay (NCI).
